What was measured:
[1] = for surface tension liquid-gas: Pendant drop shape; for electrical conductivity / viscosity / mass density: 101.33 kPa; for surface tension liquid-gas / electrical conductivity / viscosity / mass density: Liquid; for electrical conductivity: Alternating current cell with electrodes; for viscosity: Concentric cylinders viscometry; for mass density: Vibrating tube method
[2] = refractive index (Na D-line) (dimensionless); settings: 101.33 kPa, Liquid, Standard Abbe refractometry

CC[n+]1cccc(C)c1.O=S(=O)([O-])C(F)(F)C(F)(F)C(F)(F)C(F)(F)F [1-ethyl-3-methylpyridinium perfluorobutanesulfonate]
[1]
Settings	surface tension liquid-gas [mN/m]
298.3 K	26.35
303.4 K	26.16
313.4 K	25.77
323.6 K	25.39
332.9 K	25.12
343 K	24.7

CC[n+]1cccc(C)c1.O=C([O-])C(F)(F)C(F)(F)C(F)(F)C(F)(F)F [1-ethyl-3-methylpyridinium perfluoropentanoate]
Settings	electrical conductivity, [1] [S/m]	mass density, [1] [kg/m3]	refractive index, [2]	surface tension liquid-gas, [1] [mN/m]	viscosity, [1] [mPa·s]
293.15 K	0.0915	1458.7	1.42282	–	196
298.15 K	0.12	1453.6	1.42137	–	147.1
298.3 K	–	–	–	26.83	–
303.15 K	0.155	1448.6	1.4199	–	110.8
308.15 K	0.194	1443.6	1.41844	–	85.39
308.2 K	–	–	–	26.49	–
313.15 K	0.239	1438.7	1.41697	–	67.81
317.9 K	–	–	–	26.07	–
318.15 K	0.289	1433.7	1.41553	–	53.67
323.15 K	0.355	1428.9	1.41406	–	43.6
328 K	–	–	–	25.71	–
328.15 K	–	1424	1.4126	–	35.94
333.15 K	–	1419.2	1.41114	–	30.35
338 K	–	–	–	25.31	–
338.15 K	–	1414.3	1.40955	–	25.32
343.15 K	–	1409.4	1.40811	–	21.61
347 K	–	–	–	24.94	–
348.15 K	–	1404.5	1.40672	–	18.61
353.15 K	–	1399.5	1.40531	–	16.39

Settings	Normal melting temperature [°C]
[1], Crystal, DTA	2

CCCC[N+](CCCC)(CCCC)CCCC.O=S(=O)([O-])C(F)(F)C(F)(F)C(F)(F)C(F)(F)C(F)(F)C(F)(F)C(F)(F)C(F)(F)F [tetrabutylammonium heptadecafluorooctanesulfonate]
[1]
Settings	surface tension liquid-gas [mN/m]
298.4 K	21.98
303.2 K	21.6
313.3 K	21.11
323.2 K	20.65
333.2 K	20.14
343 K	19.55

CCCC[N+](CCCC)(CCCC)CCCC.O=S(=O)([O-])C(F)(F)C(F)(F)C(F)(F)C(F)(F)F [tetrabutylammonium perfluorobutanesulfonate]
[1]
Settings	surface tension liquid-gas [mN/m]
333.1 K	22.77
338 K	22.57
343.1 K	22.36
348.3 K	22.2
353.4 K	21.95
